Structures are written as SMILES.

truncated form of human NaV 1.8 with full channel activity, sequence (Q9Y5Y9 126-1722 limits assumed): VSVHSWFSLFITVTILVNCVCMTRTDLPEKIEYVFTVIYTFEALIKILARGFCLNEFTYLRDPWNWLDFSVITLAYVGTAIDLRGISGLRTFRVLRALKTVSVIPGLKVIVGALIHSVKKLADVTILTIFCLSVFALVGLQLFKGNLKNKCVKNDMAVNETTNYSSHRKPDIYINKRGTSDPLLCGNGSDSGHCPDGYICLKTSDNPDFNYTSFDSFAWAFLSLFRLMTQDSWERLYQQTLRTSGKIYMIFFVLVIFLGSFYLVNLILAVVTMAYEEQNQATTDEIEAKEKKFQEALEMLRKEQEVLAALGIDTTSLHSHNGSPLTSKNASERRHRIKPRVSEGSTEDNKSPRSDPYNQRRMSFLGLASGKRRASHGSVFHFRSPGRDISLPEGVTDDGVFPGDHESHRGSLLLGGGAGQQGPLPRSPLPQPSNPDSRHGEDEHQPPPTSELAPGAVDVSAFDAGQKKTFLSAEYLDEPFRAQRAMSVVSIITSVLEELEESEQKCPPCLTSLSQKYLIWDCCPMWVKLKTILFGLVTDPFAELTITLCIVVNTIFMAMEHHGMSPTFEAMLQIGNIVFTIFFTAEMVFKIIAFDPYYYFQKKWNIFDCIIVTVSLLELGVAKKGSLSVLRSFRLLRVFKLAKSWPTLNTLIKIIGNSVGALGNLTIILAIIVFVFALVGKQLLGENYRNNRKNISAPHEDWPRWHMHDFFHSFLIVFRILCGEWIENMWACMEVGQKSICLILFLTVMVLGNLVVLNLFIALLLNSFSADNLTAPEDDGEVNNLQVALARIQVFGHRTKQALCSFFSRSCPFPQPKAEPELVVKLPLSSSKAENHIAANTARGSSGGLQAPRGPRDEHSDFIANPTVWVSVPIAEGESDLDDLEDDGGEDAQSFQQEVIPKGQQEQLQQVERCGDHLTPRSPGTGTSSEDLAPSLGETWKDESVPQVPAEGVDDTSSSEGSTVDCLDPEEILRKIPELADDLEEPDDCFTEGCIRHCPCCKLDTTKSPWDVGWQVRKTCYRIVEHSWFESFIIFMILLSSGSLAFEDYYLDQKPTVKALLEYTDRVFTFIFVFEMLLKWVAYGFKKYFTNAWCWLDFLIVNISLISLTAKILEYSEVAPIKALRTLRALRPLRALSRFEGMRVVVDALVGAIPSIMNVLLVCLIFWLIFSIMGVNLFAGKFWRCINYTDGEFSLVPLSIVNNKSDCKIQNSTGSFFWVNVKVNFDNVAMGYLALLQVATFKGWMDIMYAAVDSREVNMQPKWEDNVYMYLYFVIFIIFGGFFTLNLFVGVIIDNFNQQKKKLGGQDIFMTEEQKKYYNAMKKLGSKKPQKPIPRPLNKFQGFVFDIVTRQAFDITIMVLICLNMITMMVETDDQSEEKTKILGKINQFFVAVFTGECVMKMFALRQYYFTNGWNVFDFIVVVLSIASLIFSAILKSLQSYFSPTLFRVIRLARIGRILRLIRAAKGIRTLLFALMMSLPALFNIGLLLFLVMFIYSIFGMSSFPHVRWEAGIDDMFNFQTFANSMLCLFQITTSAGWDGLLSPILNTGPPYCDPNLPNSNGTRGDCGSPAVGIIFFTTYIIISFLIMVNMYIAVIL

This assay addresses truncated form of human NaV 1.8 with full channel activity (Homo sapiens, UniProt Q9Y5Y9). The assay can be described thus: E-VIPR Assay Method A for detecting and measuring Nav inhibition (HEK cells, membrane potential FRET dyes, electrical stimulation). It counts as cell-based. The conditions noted are these: HEK cells expressing human NaV 1.8, HS (human serum) in compound loading buffer, 11 point dose response, top dose 3 μM, Table 20A, read-out: Nav 1.8 MedChem Optical Assay EVIPR Assay Method A HS IC50. The source says:
E-VIPR Assay Method A for Detecting and Measuring Nav Inhibition Properties Sodium ion channels are voltage-dependent proteins that can be activated by inducing membrane voltage changes by applying electric fields. The electrical stimulation instrument and methods of use, referred to as E-VIPR, are described in International Publication No. WO 2002/008748 A3 and C.-J. Huang et al. Characterization of voltage-gated sodium channel blockers by electrical stimulation and fluorescence detection of membrane potential, 24 Nature Biotech. 439-46 (2006), both of which are incorporated by reference in their entirety. The instrument comprises a microtiter plate handler, an optical system for exciting the coumarin dye while simultaneously recording the coumarin and oxonol emissions, a waveform generator, a current- or voltage-controlled amplifier, and parallel electrode pairs that are inserted into assay plate wells. Under integrated computer control, this instrument passes user-programmed electrical stimulus protocols to cells within the wells of the microtiter plate. […] Sigma #F4135), 1% NEAA (Non-Essential Amino Acids, Life Tech #11140), 1% HEPES (Life Tech #15630), 1% Pen-Strep (Penicillin-Streptomycin; […] Cells were expanded in vented cap flasks, with 95% humidity and 5% CO2. Reagents and Stock Solutions: • 100 mg/mL Pluronic F-127 (Sigma #P2443), in dry DMSO • Compound Plates: […] 5% KIR 2.1 Bacmam virus (produced in-house), prepared as described in Section 3.3 of J. A. […] The solution was made by adding 10% Pluronic F127 stock equal to combined volumes of CC2-DMPE and DiSBAC6(3). The order of preparation was first mix Pluronic and CC2-DMPE, then add DiSBAC6(3), then while vortexing add Bath1/β-Cyclodextrin. […] Assay Protocol: […] Final DMSO concentration for all wells in the assay was 0.625% (0.75% DMSO was supplemented to the Compound Loading Buffer for a final DMSO concentration of 0.625%). […] 3) Cell plates were prepared. On the day of the assay, the media was aspirated, and the cells were washed three times with 80 μL of Bath-1 buffer, maintaining 25 μL residual volume in each well. 4) 25 μL per well of Hexyl Dye Solution was dispensed into the cell plates. The cells were incubated for 20 minutes at room temp or ambient conditions in darkness. 5) 80 μL per well of Compound Loading Buffer was dispensed into compound plates. 6) The cell plates were washed three times with 80 μL per well of Bath-1 Buffer, leaving 25 µL of residual volume. Then 25 uL per well from compound plate was transferred to each cell plate. The mixture was incubated for 30 minutes at room temp/ambient conditions. 7) The plate was read on E-VIPR using the current-controlled amplifier to deliver stimulation wave pulses using the following protocol: 1.25 Amps, 2.5 ms pulse width biphasic waveform, 10 Hz for 10 seconds at a scan rate of 200 Hz. A pre-stimulus recording was performed for 0.5 seconds to obtain the un-stimulated intensities baseline. The stimulatory waveform was followed by 0.5 seconds of post-stimulation recording to examine the relaxation to the resting state. Data Analysis: Data were analyzed and reported as normalized ratios of emission intensities measured in the 460 nm and 580 nm channels. The response as a function of time was reported as the ratios obtained using the following formula: […] The data were further reduced by calculating the initial (Ri) and final (Rf) ratios. These were the average ratio values during part or all of the pre-stimulation period and during sample points during the stimulation period. The fluorescence ratio (Rf/Ri) was then calculated and reported as a function of time. Control responses were obtained by performing assays in the presence of the positive control, and in the absence of pharmacological agents (DMSO vehicle negative control). Responses to the negative (N) and positive (P) controls were calculated as above. The compound antagonist % activity A was then defined as: [formula] where X is the ratio response of the test compound. […]
As for `COc1cc(OC(F)(F)F)ccc1Oc1cc(C(F)(F)F)ncc1C(=O)Nc1ccc(F)c(C(N)=O)c1` [Compound 30, N-(3-Carbamoyl-4-fluoro-phenyl)-4-[2-methoxy-4-(trifluoromethoxy)phenoxy]-6-(trifluoromethyl)pyridine-3-carboxamide], the 50% inhibitory concentration (IC50) (in general, the concentration that inhibits the measured activity by half) worked out at 20 nM.
The same measure for `COc1cc(OC(F)(F)F)ccc1Oc1cc(C(F)(F)F)cnc1C(=O)Nc1cccc(C(N)=O)c1` [Compound 31, N-(3-Carbamoylphenyl)-3-[2-methoxy-4-(trifluoromethoxy)phenoxy]-5-(trifluoromethyl)pyridine-2-carboxamide]: 155 nM; for `COc1cc(OC(F)(F)F)ccc1Oc1cc(C(F)(F)F)cnc1C(=O)Nc1ccc(F)c(C(N)=O)c1` [Compound 32, N-(3-Carbamoyl-4-fluoro-phenyl)-3-[2-methoxy-4-(trifluoromethoxy)phenoxy]-5-(trifluoromethyl)pyridine-2-carboxamide]: 55 nM.
On to `CC(C)c1cc(Oc2ccc(OC(F)(F)F)c(F)c2)c(C(=O)Nc2ccc(F)c(C(N)=O)c2)cn1` [Compound 33, N-(3-Carbamoyl-4-fluoro-phenyl)-4-[3-fluoro-4-(trifluoromethoxy)phenoxy]-6-isopropyl-pyridine-3-carboxamide], for which the IC50 is 520 nM.
With `COc1cc(OC(F)(F)F)ccc1Oc1cc(C(F)(F)F)ncc1C(=O)Nc1ccnc(C(N)=O)c1` [Compound 34, N-(2-Carbamoyl-4-pyridyl)-4-[2-methoxy-4-(trifluoromethoxy)phenoxy]-6-(trifluoromethyl)pyridine-3-carboxamide] the figure was 83 nM; with `COc1ncccc1Oc1cc(Cl)c(Cl)cc1C(=O)Nc1ccc(F)c(C(N)=O)c1` [Compound 35, N-(3-carbamoyl-4-fluoro-phenyl)-4,5-dichloro-2-[(2-methoxy-3-pyridyl)oxy]benzamide], 250 nM.
With `NC(=O)c1cc(NC(=O)c2cnc(C3CC3)cc2Oc2ccc(OC(F)(F)F)c(Cl)c2)ccc1F` [Compound 36, N-(3-Carbamoyl-4-fluoro-phenyl)-4-[3-chloro-4-(trifluoromethoxy)phenoxy]-6-cyclopropyl-pyridine-3-carboxamide] the figure was 215 nM; with `NC(=O)c1cc(NC(=O)c2c(Oc3ccc(F)cc3)cccc2C(F)(F)F)ccc1F` [Compound 37, N-(3-Carbamoyl-4-fluoro-phenyl)-2-(4-fluorophenoxy)-6-(trifluoromethyl)benzamide], 890 nM.
The same measure for `COc1ccc(Oc2cccc(C(F)(F)F)c2C(=O)Nc2ccc(F)c(C(N)=O)c2)c(OC)c1` [Compound 38, N-(3-Carbamoyl-4-fluoro-phenyl)-2-(2,4-dimethoxyphenoxy)-6-(trifluoromethyl)benzamide]: 700 nM.
As for `NC(=O)c1cc(NC(=O)c2c(Oc3ccc(OC(F)(F)F)cc3)cccc2C(F)(F)F)ccc1F` [Compound 39, N-(3-Carbamoyl-4-fluoro-phenyl)-2-[4-(trifluoromethoxy)phenoxy]-6-(trifluoromethyl)benzamide], the IC50 turned out to be 210 nM.
For the compound `COc1cc(OC(F)(F)F)ccc1Oc1cccc(C(F)(F)F)c1C(=O)Nc1ccc(F)c(C(N)=O)c1` [Compound 40, N-(3-Carbamoyl-4-fluoro-phenyl)-2-[2-methoxy-4-(trifluoromethoxy)phenoxy]-6-(trifluoromethyl)benzamide], the IC50 was found to be 34 nM.
With `Cc1cc(F)ccc1Oc1cccc(C(F)(F)F)c1C(=O)Nc1ccc(F)c(C(N)=O)c1` [Compound 41, N-(3-Carbamoyl-4-fluoro-phenyl)-2-(4-fluoro-2-methyl-phenoxy)-6-(trifluoromethyl)benzamide] the figure was 560 nM; with `NC(=O)c1cc(NC(=O)c2cnc(C3CC3)cc2Oc2ccc(OC(F)(F)F)c(F)c2)ccc1F` [Compound 42, N-(3-Carbamoyl-4-fluoro-phenyl)-6-cyclopropyl-4-[3-fluoro-4-(trifluoromethoxy)phenoxy]pyridine-3-carboxamide], 400 nM.
The same measure for `COc1cc(OC(F)(F)F)ccc1Oc1cc(C2CC2)ncc1C(=O)Nc1ccc(F)c(C(N)=O)c1` [Compound 43, N-(3-Carbamoyl-4-fluoro-phenyl)-6-cyclopropyl-4-[2-methoxy-4-(trifluoromethoxy)phenoxy]pyridine-3-carboxamide]: 40 nM.
With `COc1cc(OC(F)(F)F)ccc1Oc1ccc(C(F)(F)F)c(F)c1C(=O)Nc1cccc(C(N)=O)c1` [Compound 44, N-(3-carbamoylphenyl)-2-fluoro-6-[2-methoxy-4-(trifluoromethoxy)phenoxy]-3-(trifluoromethyl)benzamide] the figure was 5 nM; with `COc1cc(OC(F)(F)F)ccc1Oc1cnc(C(F)(F)F)c(F)c1C(=O)Nc1ccc(F)c(C(N)=O)c1` [Compound 45, N-(3-carbamoyl-4-fluoro-phenyl)-3-fluoro-5-[2-methoxy-4-(trifluoromethoxy)phenoxy]-2-(trifluoromethyl)pyridine-4-carboxamide], 1 nM; with `COc1cc(OC(F)(F)F)ccc1Oc1cnc(C2CC2)c(F)c1C(=O)Nc1ccc(F)c(C(N)=O)c1` [Compound 46, N-(3-Carbamoyl-4-fluoro-phenyl)-2-cyclopropyl-3-fluoro-5-[2-methoxy-4-(trifluoromethoxy)phenoxy]pyridine-4-carboxamide], 1200 nM.
Consider `NC(=O)c1cccc(NC(=O)c2c(Oc3ccc(OC(F)(F)F)cc3)ccc(C(F)(F)F)c2F)c1` [Compound 47, N-(3-carbamoylphenyl)-2-fluoro-6-[4-(trifluoromethoxy)phenoxy]-3-(trifluoromethyl)benzamide], for which the IC50 worked out at 22 nM.
With `NC(=O)c1cc(NC(=O)c2c(Oc3ccc(OC(F)(F)F)cc3)ccc(C(F)(F)F)c2F)ccn1` [Compound 48, 4-[[2-fluoro-6-[4-(trifluoromethoxy)phenoxy]-3-(trifluoromethyl)benzoyl]amino]pyridine-2-carboxamide] the figure was 23 nM; with `NC(=O)c1cccc(NC(=O)c2c(Oc3ccc(F)cc3)ccc(C(F)(F)F)c2F)c1` [Compound 49, N-(3-carbamoylphenyl)-2-fluoro-6-(4-fluorophenoxy)-3-(trifluoromethyl)benzamide], 130 nM; with `NC(=O)c1cc(NC(=O)c2c(Oc3ccc(F)cc3)ccc(C(F)(F)F)c2F)ccn1` [Compound 50, 4-[[2-fluoro-6-(4-fluorophenoxy)-3-(trifluoromethyl)benzoyl]amino]pyridine-2-carboxamide], 51 nM.
The same measure for `NC(=O)c1cc(NC(=O)c2c(Oc3ccc(OC(F)(F)F)cc3Cl)ccc(C(F)(F)F)c2F)ccn1` [Compound 51]: 9 nM; for `COc1cc(OC(F)(F)F)ccc1Oc1ccc(C(F)(F)F)c(F)c1C(=O)Nc1cncc(C(N)=O)c1` [Compound 52, 5-[[2-fluoro-6-[2-methoxy-4-(trifluoromethoxy)phenoxy]-3-(trifluoromethyl)benzoyl]amino]pyridine-3-carboxamide]: 14 nM.
As for `NC(=O)c1cc(NC(=O)c2c(Oc3ccc(OC(F)(F)F)c(Cl)c3)ccc(C(F)(F)F)c2F)ccn1` [Compound 53], the IC50 came out at 17 nM.
With `COc1nc(Cl)ccc1Oc1ccc(C(F)(F)F)c(F)c1C(=O)Nc1ccc(F)c(C(N)=O)c1` [Compound 54, N-(3-Carbamoyl-4-fluoro-phenyl)-6-[(6-chloro-2-methoxy-3-pyridyl)oxy]-2-fluoro-3-(trifluoromethyl)benzamide] the figure was 7 nM.
